Like-named read-outs stand apart in the source and are kept apart here.
Columns and labels:
[1] = test system: acutely dissociated and purified rat OPCs; assay: Acute OL differentiation assay (MBP expression/cell, immunofluorescent image quantification); type: cell-based; conditions: for activation at 2 µM / activation at 10 µM / activation at 0.4 µM: sheet "All OLga data"
Experimental: In order to identify compounds with the potential to promote OL differentiation in vivo and thereby enhance remyelination, we first wanted to establish an in vitro assay system that would closely mimic conditions in vivo. To do this, we started by using OPCs acutely isolated from postnatal day 6–7 (P6–7) rat brains by O4 immunopanning. […] OPCs were plated directly onto a biological substrate (PDL/laminin) in 96-well view plates at moderate density to allow for sufficient room to expand processes during differentiation. We plated cells in serum-free medium lacking OPC mitogens (no PDGF or FGF) to allow a basal level of OL differentiation to commence, and as a positive control added thyroid hormone (T3, 40 ng/ml) to accelerate differentiation (Fig. 1, flow scheme).
Fig. 1 Flow scheme of the acute OL differentiation assay. a Purified oligodendrocyte precursor cells (OPCs) were cultured from P7 rat cortex and plated into PDL/laminin pre-coated 96-well plates. b One hour later test compounds were added. c OPC cultures with compound were maintained in culture for an additional 4 days. d On the 5th day with compound, cells were fixed and immunostained with anti-MBP antibodies and DAPI. e Images were acquired with automated fluorescence microscopy and scored phenotypically for OL differentiation (see “Methods” section)
To quantify the extent of OL differentiation occurring in treatment conditions, we measured the overall amount of MBP expression/cell (see “Methods” section). Figure 2a depicts the mask created over MBP staining under which the MBP expression was quantified. […]
All animal work was carried out in strict accordance with the recommendations in the Guide for the Care and Use of Laboratory Animals of the National Institutes of Health. The protocol was approved by the Institutional Use and Care and Use Committee at the Molecular Medicine Research Institute (Sunnyvale, CA). Animals used for OPC isolation in these studies were euthanized by decapitation. OPCs from brains of P6-P7 Sprague–Dawley rat pups (Charles River, Wilmington, MA, USA) were enriched by immunopanning as previously described (Dugas et al. 2006). Briefly, single cell suspensions were obtained from papain-digested neonatal brains and depleted of mature glial cells by successive panning with RAN-2- and GalC-coated plates, followed by enrichment for OPCs using O4-coated plates. OPCs were plated in differentiation media (DMEM, 100 U/ml Penicillin/100 µg/ml streptomycin, 2 mM L-glutamine, 1 mM Na pyruvate, 5 µg/ml insulin, 5 µg/ml N-acetyl-L-cysteine, 1× trace elements B,10 ng/ml d-Biotin, 100 µg/ml BSA, 100 µg/ml apo-transferrin, 16 µg/ml putrescine, 60 ng/ml progesterone, 40 ng/ml sodium selenite 5 ng/ml forskolin, 10 ng/ml CNTF, 1 ng/ml NT-3).
Acutely enriched OPCs were plated in differentiation media at 5000 cells/well into PDL/laminin coated 96-well view plates and centrifuged at 200×g to facilitate cell attachment, survival, and even distribution of OPCs. OPCs were pre-incubated for 1–2 h at 37 °C in 10 % CO2, followed by the addition of test compounds in quadruplicate. Controls were added in eight replicate wells, negative control = 0.1 % DMSO; positive control = 40 ng/ml T3. The day of OPC plating was considered DIV0. On DIV4, cells were fixed, immunostained for myelin basic protein (MBP) expression, imaged and quantified as described below.

expanded OPCs = assay: cells; conditions: for 0.1 µM (% DMSO) / 1 µM (% DMSO) / 10 µM (% DMSO): alamarBlue viability of expanded OPCs, relative to DMSO control; for 0.1 µM (% DMSO): compound at 0.1 µM; for 1 µM (% DMSO): compound at 1 µM; for 10 µM (% DMSO): compound at 10 µM; for viability at 0.1 µM / viability at 1 µM / viability at 10 µM: Rattus norvegicus, 72 h
Experimental: Having established a consistent assay for measuring OL differentiation in vitro, the next step was to utilize this assay to assess the ability of a wide array of compounds to promote OL differentiation. Prior to library screening, we first established the maximum non-toxic dose of each compound in the library. […] Therefore, we added each compound in the NIH clinical collection (NCC) library to OPCs at 10, 1, and 0.1 µM concentrations. Three days later, we assessed viability of the treated cells by measuring AlamarBlue fluorescence, a measure of cell viability (see “Methods” section). […] Appropriately, we established three sets of screening concentrations for library compounds: non-toxic compounds were tested at 10 and 2 µM, slightly toxic compounds (only toxic at 10 µM) were tested at 2 and 0.4 µM, and very toxic compounds were tested at 0.4 and 0.08 µM.
OPCs were expanded in vitro by seeding into PDL-coated tissue culture flasks at 1000–2000 cells/cm^2 in differentiation media supplemented with 10 ng/ml PDGF-AA. Proliferating OPCs were fed every 2–3 days and supplemented with 2–3× concentration of PDGF as needed to prevent OPC differentiation. After 6–7 days of proliferation, OPCs were harvested by trypsinization, plated into PDL-coated 96-well Falcon plates and centrifuged at 200×g to facilitate cell attachment, survival, and even distribution of cells. Expanded OPCs were seeded in differentiation media at 10,000 cells/well and incubated for 2 h at 37 °C, 10 % CO2 prior to addition of compounds. The NCC library was diluted and added to cells at 10, 1, and 0.1 µM; each concentration was tested in quadruplicate. As a positive control for the induction of toxicity, 5 ng/ml tunicamycin was added to 8 wells in each plate. Three days later, a 1:10 dilution of alamarBlue® (AB) was added to each well and cells were incubated 4 h at 37 °C, 10 % CO2. AB fluorescence was measured using a PerkinElmer Victor II fluorescence microplate reader (PerkinElmer, Waltham, MA) with 560 nm excitation/590 nm emission filters. For library screening, the highest concentration of each compound was adjusted to a minimally toxic concentration based on this toxicity data. Compounds were additionally tested at a second concentration that was 1/5th of the top concentration. The final concentration of DMSO in each well was 0.1 %.

[2] = Rattus norvegicus, test compound at 2 uM, MBP expression relative to quetiapine, NCC library screen, read-out: 2 uM (% Quet)
[3] = Rattus norvegicus, test compound at 10 uM, MBP expression relative to quetiapine, NCC library screen, read-out: 10 uM (% Quet)
[4] = Rattus norvegicus, 2 uM test compound, relative to quetiapine, read-out: OL differentiation, 2 uM (% Quet)
[5] = Rattus norvegicus, 10 uM test compound, relative to quetiapine, read-out: OL differentiation, 10 uM (% Quet)
[6] = read-out: 0.1 µM (% DMSO), alamarBlue viability of expanded OPCs, compound at 0.1 µM, sheet All Tox data
[7] = read-out: 1 µM (% DMSO), alamarBlue viability of expanded OPCs, compound at 1 µM, sheet All Tox data
[8] = read-out: 10 µM (% DMSO), alamarBlue viability of expanded OPCs, compound at 10 µM, sheet All Tox data
[9] = Rattus norvegicus, test compound at 2 uM, NCC library screen, relative to quetiapine, read-out: 2 uM (% Quet)
[10] = Rattus norvegicus, test compound at 10 uM, NCC library screen, relative to quetiapine, read-out: 10 uM (% Quet)
[11] = read-out: 0.1 µM (% DMSO), alamarBlue viability, NCC library compound at 0.1 µM, sheet "All Tox data"
[12] = read-out: 1 µM (% DMSO), alamarBlue viability, NCC library compound at 1 µM, sheet "All Tox data"
[13] = read-out: 10 µM (% DMSO), alamarBlue viability, NCC library compound at 10 µM, sheet "All Tox data"

SMILES | 0.1 µM (% DMSO) (expanded OPCs) | 1 µM (% DMSO) (expanded OPCs) | 10 µM (% DMSO) (expanded OPCs) | activation at 2 µM [1, 4] | activation at 10 µM [1, 5] | activation at 2 µM [1, 9] | activation at 10 µM [1, 10] | other results
OC(CCN1CCCCC1)(c1ccccc1)C1CCCCC1 (stereo not drawn) [Trihexyphenidyl] | 90.6 % DMSO | 84.6 % DMSO | 67.7 % DMSO |  |  |  |  | activation at 2 µM [1, 2]: -19.1%; activation at 10 µM [1, 3]: -45.6%
CCOC(=O)[C@@]1(CCCCCCOc2ccc(Cl)cc2)CO1 [Etomoxir] |  |  |  | 10.1% | 5.4% |  |  | viability at 0.1 µM (expanded OPCs; [6]): 85.7%; viability at 1 µM (expanded OPCs; [7]): 92.3%; viability at 10 µM (expanded OPCs; [8]): 86.2%
Cc1ccc(S(=O)(=O)NC(=O)NN2CCCCCC2)cc1 [Tolazamide] | 100.3 % DMSO | 95.8 % DMSO | 99.9 % DMSO |  |  | -14.2% | -2% | 
Nc1ccn([C@@H]2CS[C@H](CO)O2)c(=O)n1 [Lamivudine] | 94.3 % DMSO | 88.1 % DMSO | 79.4 % DMSO | -2.4% | -27.9% |  |  | activation at 2 µM [1, 2]: 2.9%; activation at 10 µM [1, 3]: -9.8%; viability at 0.1 µM (expanded OPCs; [6]): 87.3%; viability at 1 µM (expanded OPCs; [7]): 96%; viability at 10 µM (expanded OPCs; [8]): 113%
C=C1C[C@@H]2[C@H](CC[C@]3(C)C(=O)CC[C@@H]23)[C@@]2(C)C=CC(=O)C=C12 [Exemestane] |  |  |  | -24.2% | -57.2% |  |  | viability at 0.1 µM (expanded OPCs; [11]): 92.7%; viability at 1 µM (expanded OPCs; [12]): 95.1%; viability at 10 µM (expanded OPCs; [13]): 102%
Nc1nc2ncc(CNc3ccc(C(=O)N[C@@H](CCC(=O)O)C(=O)O)cc3)nc2c(=O)[nH]1 [Folic acid] | 110.4 % DMSO | 104.7 % DMSO | 104.5 % DMSO |  |  | -16.1% | -12.9% | 
c1ccc(-c2ccc(C(c3ccccc3)n3ccnc3)cc2)cc1 (stereo not drawn) [Bifonazole, reference compound] |  |  |  | 105% |  |  |  | activation at 0.4 µM ([1]; Rattus norvegicus, 0.4 uM test compound, relative to quetiapine, read-out: OL differentiation, 0.4 uM (% Quet)): 67.3%; EC50 ([1]; Rattus norvegicus, average EC50 for induction of OL differentiation from independent biological replicates, eight concentrations): 1700 nM; hit in OL differentiation assay, MRF-TMC ([1]; ● = confirmed hit in this paper's assay): ●; viability at 0.1 µM (expanded OPCs; [11]): 121%; viability at 1 µM (expanded OPCs; [12]): 187%; viability at 10 µM (expanded OPCs; [13]): 11.9%
Clc1ccc(COC(Cn2ccnc2)c2ccc(Cl)cc2Cl)cc1 (stereo not drawn) [Econazole] | 178.0 % DMSO | 195.6 % DMSO | 29.6 % DMSO |  |  | -178% |  | activation at 0.4 µM ([1]; Rattus norvegicus, test compound at 0.4 uM, NCC library screen, relative to quetiapine, read-out: 0.4 uM (% Quet)): 90%
CC(C)(C)NCC(O)COc1cccc2c1CC(O)C(O)C2 (stereo not drawn) [Nadolol] | 102.3 % DMSO | 95.3 % DMSO | 94.0 % DMSO |  |  | -14.4% | -35% | 
NC12CC3CC(CC(C3)C1)C2 [Amantadine] | 89.6 % DMSO | 86.9 % DMSO | 77.6 % DMSO |  |  | -21.4% | -19.9% | 
[H]/N=C(/NC)NCCC[C@H](N)C(=O)O [L-NMMA] |  |  |  | 3% | 7.7% |  |  | viability at 0.1 µM (expanded OPCs; [6]): 84.1%; viability at 1 µM (expanded OPCs; [7]): 92.4%; viability at 10 µM (expanded OPCs; [8]): 93%
C[C@H]1c2cccc(O)c2C(=O)C2=C(O)[C@]3(O)C(=O)C(C(N)=O)=C(O)[C@@H](N(C)C)[C@@H]3[C@@H](O)[C@@H]21 [Doxycycline] | 95.2 % DMSO | 91.4 % DMSO | 82.8 % DMSO |  |  |  |  | activation at 2 µM [1, 2]: 4.2%; activation at 10 µM [1, 3]: -18.6%
CC(COc1ccccc1)NC(C)C(O)c1ccc(O)cc1 (stereo not drawn) [Isoxsuprine] | 97.2 % DMSO | 91.9 % DMSO | 60.9 % DMSO |  |  | 13.2% | 2.2% | 
